Results as given in article PMC5841303, “In silico screening for human norovirus antivirals reveals a novel non-nucleoside inhibitor of the viral polymerase” (Scientific Reports, 2018).

Legend:
[1] = target: T1, human norovirus Sydney 2012 RdRp (Norovirus GII.4 (Norwalk virus, human norovirus), UniProt K4L8Z7); assay: Combinational study of 54 and PPNDS (Compusyn combination index); format: biochemical; conditions: 54 with PPNDS, 4:1 ratio
Protocol: Despite the minimal activity in the cell culture system, RdRp inhibition by 54 is an important finding in the search of novel norovirus inhibitors. […] PPNDS (0.025–25 µM) and 54 (0.1–100 µM) were examined alone and together in a 1:4 ratio respectively (Fig. 13A), and the average of the combination indices at 50% (1.6), 75% (1.7) and 90% (1.8) inhibition was 1.7.
(§1) Fluorescent RdRp activity assays were carried out as previously described[14],[62]. Briefly, RdRp activity was quantified by monitoring the formation of double-stranded RNA (dsRNA) from a single stranded homopolymeric template, poly(C) (Sigma Aldrich, St Louis, MO, USA), using the fluorescent dye PicoGreen (Life Technologies, Carlsbad, CA, USA). RdRp assays were performed in 384-well plates, and each reaction mixture contained 400 ng enzyme, 45 µM GTP, 10 ng/µL poly(C) RNA, 2.5 mM MnCl2, 5 mM dithiothreitol, (DTT), 0.01% bovine serum albumin (BSA), and 0.005% Tween 20 in 20 mM Tris-HCl, pH 7.5, with a final reaction volume of 25 µL. The previous published norovirus NNI NIC02 was used as a positive control. RdRps were incubated for 10 mins at 30 °C in the presence of the test compounds or the compound vehicle DMSO (0.5% vol/vol) before addition into the reaction mixture, which was then allowed to run 15 min at 30 °C then terminated with 10 mM EDTA, followed by PicoGreen staining and dsRNA quantitation. GraphPad Prism V6.05 (La Jolla, CA, USA) was used to plot the IC50 values. In cases where fluorescent enhancement was recorded for a compound instead of inhibition, a secondary gel-based polymerase activity assay was used as a counter-screen as described below, to exclude the possibility of RdRp activity enhancement (Supplementary Fig. S1). Primed elongation activity was examined in a gel-based assay as previously described[16],[63] using the RNA template (PE44-NoV, Fig. 4D). Gels were imaged using BioRad (Hercules, CA, U.SA) Geldoc Universal Hood II, running BioRad Image Lab software, V4.1, build 16. Antagonism was calculated using Compusyn software V1.0[59]. 54 and PPNDS (4:1 ratio) were tested alone and together against norovirus Sydney 2012 RdRp.

Q414A norovirus RdRp = target: T2, Q414A norovirus RdRp (Norovirus GII.4 (Norwalk virus, human norovirus), UniProt K4L8Z7, Q1603A); assay: Fluorescent RdRp assay, Q414A mutant RdRp; format: biochemical; conditions: 0.1–100 µM
T2 sequence (K4L8Z7 1190-1699 Q1603A): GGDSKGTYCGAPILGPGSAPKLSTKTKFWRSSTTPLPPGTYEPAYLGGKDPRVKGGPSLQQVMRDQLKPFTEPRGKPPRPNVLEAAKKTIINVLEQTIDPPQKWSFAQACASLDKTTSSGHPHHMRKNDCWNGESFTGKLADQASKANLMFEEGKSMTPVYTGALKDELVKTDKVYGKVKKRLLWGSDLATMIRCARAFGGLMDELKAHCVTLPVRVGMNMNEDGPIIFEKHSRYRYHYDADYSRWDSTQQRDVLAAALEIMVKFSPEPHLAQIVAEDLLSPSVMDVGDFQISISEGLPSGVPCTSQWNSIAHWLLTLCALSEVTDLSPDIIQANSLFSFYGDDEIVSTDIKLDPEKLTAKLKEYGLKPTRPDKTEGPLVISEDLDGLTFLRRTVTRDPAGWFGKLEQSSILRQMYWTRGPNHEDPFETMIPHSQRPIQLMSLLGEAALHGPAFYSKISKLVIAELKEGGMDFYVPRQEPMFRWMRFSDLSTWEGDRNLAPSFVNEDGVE
Text: Given the evidence of 54 being a site-B binding NNI, residues Q414 and R419 were mutated to alanine. These residues were previously shown by our research group and others to be critical for human norovirus RdRp site-B binding NNIs, and can create resistance to the drug through their mutagenesis[16],[17],[39]. After the mutant RdRps’ transcriptional activity was confirmed in a fluorescent RdRp assay (Q414A: 54%, R419A: 34% of wild-type activity, respectively), dose-response curves for 54 (0.1–100 µM) were produced to compare the IC50 values between the wild-type RdRp and the two mutant RdRps, Q414A and R419A (Fig. 13B). […]
Fluorescent RdRp activity assays were carried out as previously described[14],[62]. Briefly, RdRp activity was quantified by monitoring the formation of double-stranded RNA (dsRNA) from a single stranded homopolymeric template, poly(C) (Sigma Aldrich, St Louis, MO, USA), using the fluorescent dye PicoGreen (Life Technologies, Carlsbad, CA, USA). […] RdRps were incubated for 10 mins at 30 °C in the presence of the test compounds or the compound vehicle DMSO (0.5% vol/vol) before addition into the reaction mixture, which was then allowed to run 15 min at 30 °C then terminated with 10 mM EDTA, followed by PicoGreen staining and dsRNA quantitation. […] Antagonism was calculated using Compusyn software V1.0[59]. […]

[2] = CellTitre Blue cell viability (cytotoxicity) assay; format: cell-based; conditions: mouse, RAW264.7 mouse macrophage cells, 0.5–100 µM, read-out: CC50 (half maximal cytotoxic concentration)
Protocol: As mentioned above, the only robust cellular assay available for the evaluation of potential norovirus inhibitors is the closely related MNV assay. […] Consequently, 54 was further assessed to determine the IC50 value against MNV RdRp activity using an in vitro fluorescent assay. […] 54 was then assessed for cytotoxicity against RAW264.7 mouse macrophage cells using a cell viability assay. […] Using the plaque reduction assay, the inhibitory effects of 54 (0.5–50 µM) were examined against MNV plaque formation in cell culture. […] Compound solubility and its cell-membrane permeability properties could be further improved with structure-activity relationship enhancement of the 54 scaffold to facilitate cellular uptake, and therefore to increase antiviral efficacy. Work on this aspect is ongoing, and it will be reported in due course.
MNV-1 (CW1) culture assays were performed as previously described. Replication was examined using plaque assays[58],[64],[65]. Cytotoxicity was examined using a CellTitre Blue (Promega, Madison, WI, USA) viability assay as described previously.

[3] = target: T1, human norovirus Sydney 2012 RdRp; assay: Fluorescent de novo RdRp activity assay (PicoGreen, poly(C) template); format: biochemical
Protocol: The 62 compounds identified in silico were screened for inhibition of norovirus RdRp activity using an in vitro fluorescent, de novo RdRp assay. Compounds were tested at fixed concentrations of 10 µM and 100 µM, and compared to mock treated samples containing the vehicle only (0.5% DMSO [vol/vol]) (Fig. 4A,B). […] For certain compounds, significant insolubility was observed, coupled with either inherent fluorescence quenching (positive y-axis values on Fig. 4A,B) or enhancement of the fluorescence signal (negative y-axis values).
The newly synthesised compounds, including the re-prepared hit 13 and some synthesis intermediates (Table 1), were initially evaluated on norovirus Sydney 2012 RdRp activity in vitro using a quantitative fluorescent assay. Compounds were tested at a fixed concentration of 10 μM and compared to the relative activity of mock treated samples.
Recombinant calicivirus RdRps (GenBank accession numbers) norovirus GII.Pe/GII.4 Sydney 2012 (KT239579), MNV GV CW1 (DQ285629), RHDV Czech V351 (KF594473.1), and SaV GI.1 Mc114 (AY237422) were expressed and purified as described previously[60],[61]. RdRp resistance mutants were generated using the QuikChange site-directed mutagenesis kit (Agilent Technologies, Santa Clara, CA, USA) and confirmed by Sanger sequencing.
as §1

## O=C1NN(c2ccccc2)C(=O)/C1=C/c1ccc(-c2ccc(S(=O)(=O)Nc3ccccc3)cc2)o1 [Compound 54]
[1]
  combination index at 50% inhibition: 1.6
  combination index at 75% inhibition: 1.7
  combination index at 90% inhibition: 1.8
[1]; average over 50%, 75% and 90% inhibition
  average combination index: 1.7
Q414A norovirus RdRp
  IC50: 7.8 µM
[2]
  CC50: 62.8 µM
[3]
  IC50: 5.6 µM
